Source: patent US12508271B2, “Prodrugs of 2-PMPA for healthy tissue protection during PSMA-targeted cancer imaging or radiotherapy” (The Johns Hopkins University, priority 2017, dated 2025)

Tests used:
PSMA [1] = target: T1, PSMA (Homo sapiens, UniProt Q04609); assay: Tumor, kidney and salivary gland uptake of 68Ga-PSMA-617 in a prostate cancer patient with and without Tris-POC-2-PMPA pre-dosing (PET); format: in vivo; parameters: from tissue; host or cells: kidneys, salivary and lacrimal glands, and tumour lesions/metastases of living human subjects (PET / gamma imaging); conditions: PET 1 hour after administration, no Tris-POC-2-PMPA
Description: One patient was PET imaged 1 h after injection of ^68Ga-PSMA-617 and quantified per SUVmax for tracer uptake in tumor, kidneys and salivary glands. On a subsequent day, the same patient was imaged using the same protocol but with pretreatment of 10 mg (0.1 mg/kgBW) Tris-POC-2-PMPA solution (in 2.5 mL of 30% ethanol) 15 min before application of the PET-tracer.

[2] = cited from earlier work
PSMA [3] = target: T1, PSMA; parameters: from tissue; host or cells: kidneys, salivary and lacrimal glands, and tumour lesions/metastases of living human subjects (PET / gamma imaging); conditions: without Tris-POC-2-PMPA; same center (Kratochwil et al., 2016); cited from earlier work
[4] = other mCRPC patients, literature

T1 sequence (Q04609 whole entry): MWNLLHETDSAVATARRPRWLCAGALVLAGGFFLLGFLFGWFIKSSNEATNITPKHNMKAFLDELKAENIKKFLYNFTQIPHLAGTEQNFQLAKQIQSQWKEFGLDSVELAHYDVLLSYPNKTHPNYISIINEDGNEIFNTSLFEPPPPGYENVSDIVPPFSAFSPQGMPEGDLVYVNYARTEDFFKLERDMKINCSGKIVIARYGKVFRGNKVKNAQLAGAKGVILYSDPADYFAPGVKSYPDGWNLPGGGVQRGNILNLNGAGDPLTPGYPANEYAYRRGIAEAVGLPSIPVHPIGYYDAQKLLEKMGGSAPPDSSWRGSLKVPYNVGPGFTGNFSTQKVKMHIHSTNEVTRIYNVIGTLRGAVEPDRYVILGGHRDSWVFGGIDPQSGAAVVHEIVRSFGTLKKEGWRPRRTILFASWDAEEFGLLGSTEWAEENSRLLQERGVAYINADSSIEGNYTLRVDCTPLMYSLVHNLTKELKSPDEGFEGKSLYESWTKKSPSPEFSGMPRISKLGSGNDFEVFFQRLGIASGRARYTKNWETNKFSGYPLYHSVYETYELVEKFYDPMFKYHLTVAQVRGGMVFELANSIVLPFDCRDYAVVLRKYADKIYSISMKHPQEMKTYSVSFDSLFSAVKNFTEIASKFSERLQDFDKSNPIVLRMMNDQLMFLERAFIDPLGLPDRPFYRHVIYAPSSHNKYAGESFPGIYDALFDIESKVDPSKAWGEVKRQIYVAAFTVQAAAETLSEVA

O=C([O-])CN1CCN(CC(=O)[O-])CCN(CC(=O)NC[C@H]2CC[C@H](C(=O)N[C@@H](Cc3ccc4ccccc4c3)C(=O)NCCCC[C@H](NC(=O)N[C@@H](CCC(=O)O)C(=O)O)C(=O)O)CC2)CCN(CC(=O)[O-])CC1.[68Ga+3] [^68Ga-PSMA-617, reference compound]
uptake in kidneys without pre-treatment (PSMA [1]): 35.4 SUVmax | uptake in metastases without pre-treatment (PSMA [1]): 3.6-12.5 SUVmax | uptake in parotid gland without pre-treatment (PSMA [1]): 18.2 SUVmax | uptake in submandibular gland without pre-treatment (PSMA [1]): 23.1 SUVmax

O=C([O-])CN1CCN(CC(=O)[O-])CCN(CC(=O)NCC2CCC(C(=O)N[C@@H](Cc3ccc4ccccc4c3)C(=O)NCCCC[C@H](NC(=O)N[C@@H](CCC(=O)O)C(=O)O)C(=O)O)CC2)CCN(CC(=O)[O-])CC1.[177Lu+3] (some centres unmarked) [^177Lu-PSMA-617]
mean effective dose to the lacrimal glands ([2]; Hohberg et al., 2016): 2.82 Gy/GBq | absorbed dose to the kidneys, reported range [2, 4]: 0.53-0.99 Gy/GBq | absorbed dose to the red marrow, reported range [2, 4]: 0.01-0.05 Gy/GBq | absorbed dose to the salivary glands, reported range [2, 4]: 0.72-1.90 Gy/GBq | mean absorbed dose to the kidneys, historical controls (PSMA [3]): 0.78 Gy/GBq | mean absorbed dose to the red marrow, historical controls (PSMA [3]): 0.03 Gy/GBq | mean absorbed dose to the salivary glands, historical controls (PSMA [3]): 1.44 Gy/GBq
